For assay [1], the system named is larvae of cabbage moth (Plutella xylostera). Briefly: Insecticidal effect against larvae of cabbage moth (leaf immersion). In kind it is in vivo. As for the experimental part: Insecticidal Effect Against Larvae of Cabbage Moth (Plutella xylostera)
(§1) A piece of cabbage leaf (diameter: 6 cm) was immersed for 1 minute in a water-diluted solution of the insecticide (wettable powder) of the present invention prepared according to the prescription of Formulation Example 1. After immersion, the cabbage was air-dried and placed in a plastic cup (inner diameter: 7 cm), and then inoculated with 5 larvae of cabbage moth in the third stage therein (1-concentration, 2-repetion). The cup was allowed to stand in a room thermostated at 25° C. Four days after the inoculation, dead or alive larvae or suffuring larvae were counted, and mortality (%) was calculated wherein a suffering larva was regarded as 0.5 dead larva. When compounds of Compound Nos. described below were subjected to the test, the mortality was 100% in a compound concentration of 500 ppm. In the meanwhile, the Compounds Nos. correspond to ones in Tables 1 to 8.

Assay [2] deals with larvae of common cutworm (Spodoptera litura). Kind of assay: Insecticidal effect against larvae of common cutworm (leaf immersion). In kind it is in vivo. The following applies: in Brassica oleracea. As for the experimental part:
Insecticidal Effect Against Larvae of Common Cutworm (Spodoptera litura)
as §1, with “powder),of” for “powder) of”, “common cutworm” for “cabbage moth”

As usually defined, the mortality is the percentage killed. Read a high mortality as a strong lethal effect. For the molecule `O=C(NCc1ccc(Cl)nc1)C(Cl)=NNc1ccc(C(F)(F)F)cc1` [Compound No. 5, N-(6-chloro-3-pyridylmethyl)-2-chloro-2-(4-trifluoromethylphenyl hydrazono) acetic acid amide], in assay [1], the mortality at 500 ppm turned out to be 100%.

`CC(=NNc1ccc(C(F)(F)F)cc1)C(=O)NCc1ccc(Cl)cc1` [Compound No. 62, N-(4-chlorobenzyl)-2-(4-trifluoromethylphenyl hydrazono) propionic acid amide]: the mortality at 500 ppm in assay [2] and in assay [1] was 100% in each case.

With `COc1ccc(CNC(=O)C(C)=NNc2ccc(Cl)cc2)cc1` [Compound No. 93, N-(4-methoxybenzyl)-2-(4-chlorophenyl hydrazono) propionic acid amide], in assay [1], the mortality at 500 ppm is 100%.

Regarding `CC(=NN(C)c1ccc(C(F)(F)F)cc1)C(=O)NCc1ccc(Cl)cc1` [Compound No. 109, N-(4-chlorobenzyl)-2-[N-methyl-N-(4-trifluoromethylphenyl) hydrazono]propionic acid amide], the mortality at 500 ppm in assay [2] and in assay [1] was 100% each time.

For `C/C(=N\Nc1ccc(Cl)cc1)C(=O)NNc1ccc(Cl)cc1` [Compound No. 104, (E)-N′-(4-chlorophenyl)-2-(4-chlorophenyl hydrazono) propionic acid hydrazide], the mortality at 500 ppm in assay [2] and in assay [1] was 100% each time.

Take `CCOCC(=NNc1ccc(C(F)(F)F)cc1)C(=O)NCc1ccc(Cl)nc1` [Compound No. 170, N-(6-chloro-3-pyridylmethyl)-3-ethoxy-2-(4-trifluoromethylphenyl hydrazono) propionic acid amide]: in assay [1], the mortality at 500 ppm came to 100%.

As for `CC(=NNc1ccc(C(F)(F)F)cc1)C(=O)NCc1ccc(Cl)nc1` [Compound No. 63, N-(6-chloro-3-pyridylmethyl)-2-(4-trifluoromethylphenyl hydrazono) propionic acid amide], the mortality at 500 ppm in assay [2] and in assay [1] was 100% throughout.

With `C/C(=N/Nc1ccc(Cl)cc1)C(=O)NNc1ccc(Cl)cc1` [Compound No. 105, (Z)-N′-(4-chlorophenyl)-2-(4-chlorophenyl hydrazono) propionic acid hydrazide], the mortality at 500 ppm in assay [2] and in assay [1] was 100% throughout.

As to `N#CC(=NNc1ccc(C(F)(F)F)cc1)C(=O)NCc1ccc(Cl)nc1` [Compound No. 184, N-(6-chloro-3-pyridylmethyl)-2-cyano-2-(4-trifluoromethylphenyl hydrazono) acetic acid amide], the mortality at 500 ppm in assay [2] and in assay [1] was 100% each time.

In the case of `CC(=NN(C)c1ccc(C(F)(F)F)cc1)C(=O)NCc1ccc(Cl)nc1` [Compound No. 110, N-(6-chloro-3-pyridylmethyl)-2-[N-methyl-N-(4-trifluoromethylphenyl) hydrazono]propionic acid amide], the mortality at 500 ppm in assay [2] and in assay [1] was 100% in each case.

Take `CNC(=NNc1ccc(C(F)(F)F)cc1)C(=O)NCc1ccc(Cl)nc1` [Compound No. 191, N-(6-chloro-3-pyridylmethyl)-2-methylamino-2-(4-trifluoromethylphenyl hydrazono) acetic acid amide]: the mortality at 500 ppm in assay [2] and in assay [1] was 100% each time.
